Each compound was assayed against T1, JNK1 (Homo sapiens, UniProt P45983) (assay: JNK1 biochemical assays (one or more of: time resolved fluorescence, Z'-LYTE Cascade, radioactive)). Conditions: one or more of the JNK1 biochemical assays; read-out: Act. Level (JNK1 IC50 activity level).
T1 construct: purchased Carna Biosciences
T1 sequence (P45983 whole entry): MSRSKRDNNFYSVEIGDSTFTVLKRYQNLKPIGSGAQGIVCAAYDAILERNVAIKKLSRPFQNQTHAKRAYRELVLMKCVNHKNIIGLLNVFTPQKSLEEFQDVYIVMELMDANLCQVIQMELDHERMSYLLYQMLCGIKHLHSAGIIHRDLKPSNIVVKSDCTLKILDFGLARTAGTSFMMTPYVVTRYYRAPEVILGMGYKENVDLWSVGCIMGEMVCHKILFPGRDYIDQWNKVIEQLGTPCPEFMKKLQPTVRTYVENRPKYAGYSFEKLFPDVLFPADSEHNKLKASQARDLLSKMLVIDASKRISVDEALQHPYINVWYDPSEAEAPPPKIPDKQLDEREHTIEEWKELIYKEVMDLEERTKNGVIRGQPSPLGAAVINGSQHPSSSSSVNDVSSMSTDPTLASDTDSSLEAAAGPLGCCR

IC50, < 200 nM:
CC(C)(Nc1nc(N[C@H]2CCCOC2)ncc1C(N)=O)C1CC1 [Example 468, (S)-4-(2-cyclopropylpropan-2-ylamino)-2-(tetrahydro-2H-pyran-3-ylamino)pyrimidine-5-carboxamide]
C[C@@H]1CC[C@@H](Nc2nc(N[C@@H](C)C(C)(C)C)ncc2C(N)=O)C[C@H]1O [Example 469, 2-((S)-3,3-dimethylbutan-2-ylamino)-4-((1R,3R,4R)-3-hydroxy-4-methylcyclohexylamino)pyrimidine-5-carboxamide]
CC(C)[C@@H](C)Nc1ncc(C(N)=O)c(N[C@@H]2CC[C@@H](C)[C@H](O)C2)n1 [Example 470, 4-((1R,3R,4R)-3-hydroxy-4-methylcyclohexylamino)-2-((R)-3-methylbutan-2-ylamino)pyrimidine-5-carboxamide]
CC(C)[C@H](C)Nc1ncc(C(N)=O)c(N[C@@H]2CC[C@@H](C)[C@H](O)C2)n1 [Example 471, 4-((1R,3R,4R)-3-hydroxy-4-methylcyclohexylamino)-2-((S)-3-methylbutan-2-ylamino)pyrimidine-5-carboxamide]
C[C@@H]1CC[C@@H](Nc2nc(NCC3CC3)ncc2C(N)=O)C[C@H]1O [Example 472, 2-(cyclopropylmethylamino)-4-((1R,3R,4R)-3-hydroxy-4-methylcyclohexylamino)pyrimidine-5-carboxamide]
CO[C@H]1CC[C@H](Nc2ncc(C(N)=O)c(NC3(C)CCCC3)n2)CC1 [Example 473]
C[C@@H]1CC[C@@H](Nc2nc(NC3(C4CC4)CC3)ncc2C(N)=O)C[C@H]1O [Example 474, 2-(bi(cycloprop)ylamino)-4-((1R,3R,4R)-3-hydroxy-4-methylcyclohexylamino)pyrimidine-5-carboxamide]
C[C@@H]1CC[C@@H](Nc2nc(NC3(C)CCCC3)ncc2C(N)=O)C[C@H]1O [Example 475, 4-((1R,3R,4R)-3-hydroxy-4-methylcyclohexylamino)-2-(1-methylcyclopentylamino)pyrimidine-5-carboxamide]
CCO[C@H]1CC[C@H](Nc2ncc(C(N)=O)c(NC3C4CC3C4)n2)CC1 (stereo partly shown) [Example 476, 4-(bicyclo[1.1.1]pentan-2-ylamino)-2-((1r,4r)-4-ethoxycyclohexylamino)pyrimidine-5-carboxamide]
NC(=O)c1cnc(N[C@H]2CC[C@H](O)CC2)nc1NC12CCC(C1)C2 [Example 477, 4-(bicyclo[2.1.1]hexan-1-ylamino)-2-((1r,4r)-4-hydroxycyclohexylamino)pyrimidine-5-carboxamide]
CCO[C@H]1CC[C@H](Nc2ncc(C(N)=O)c(NC3(CC)CCCCC3)n2)CC1 [Example 478, 2-((1r,4r)-4-ethoxycyclohexylamino)-4-(1-ethylcyclohexylamino)pyrimidine-5-carboxamide]
CC(C)(Nc1nc(NC23CCC(O)(CC2)CC3)ncc1C(N)=O)C1CC1 [Example 479, 4-(2-cyclopropylpropan-2-ylamino)-2-(4-hydroxybicyclo[2.2.2]octan-1-ylamino)pyrimidine-5-carboxamide]
CN(C)C(=O)[C@H]1CC[C@H](Nc2ncc(C(N)=O)c(NC(C)(C)C3CC3)n2)CC1 [Example 480, 4-(2-cyclopropylpropan-2-ylamino)-2-((1r,4r)-4-(dimethylcarbamoyl)cyclohexylamino)pyrimidine-5-carboxamide]
CC(C)(Nc1nc(N[C@H]2CC[C@H](OC(F)F)CC2)ncc1C(N)=O)C1CC1 [Example 481, 4-(2-cyclopropylpropan-2-ylamino)-2-((1r,4r)-4-(difluoromethoxy)cyclohexylamino)pyrimidine-5-carboxamide]
CC(C)(Nc1nc(N[C@H]2CC[C@H](OCC(F)(F)F)CC2)ncc1C(N)=O)C1CC1 [Example 482, 4-(2-cyclopropylpropan-2-ylamino)-2-((1r,4r)-4-(2,2,2-trifluoroethoxy)cyclohexylamino)pyrimidine-5-carboxamide]
CC(C)(Nc1nc(N[C@H]2CC[C@H](OC3CC3)CC2)ncc1C(N)=O)C1CC1 [Example 483, 2-((1r,4r)-4-cyclopropoxycyclohexylamino)-4-(2-cyclopropylpropan-2-ylamino)pyrimidine-5-carboxamide]
NC(=O)c1cnc(N[C@H]2CC[C@H](OC3CC3)CC2)nc1NC1C2CC1C2 (stereo partly shown) [Example 486, 4-(bicyclo[1.1.1]pentan-2-ylamino)-2-((1r,4r)-4-cyclopropoxycyclohexylamino)pyrimidine-5-carboxamide]
NC(=O)c1cnc(N[C@H]2CC[C@H](OC3CC3)CC2)nc1NC12CCC(C1)C2 [Example 487, 4-(bicyclo[2.1.1]hexan-1-ylamino)-2-((1r,4r)-4-cyclopropoxycyclohexylamino)pyrimidine-5-carboxamide]
CCO[C@H]1CC[C@H](Nc2ncc(C(N)=O)c(NC3(C)CCCC3)n2)CC1 [Example 488, 2-((1r,4r)-4-ethoxycyclohexylamino)-4-(1-methylcyclopentylamino)pyrimidine-5-carboxamide]
C[C@@H]1CC[C@@H](Nc2nc(NC34CC(C(C)(C)C)(C3)C4)ncc2C(N)=O)C[C@H]1O [Example 489, 2-(3-tert-butylbicyclo[1.1.1]pentan-1-ylamino)-4-((1R,3R,4R)-3-hydroxy-4-methylcyclohexylamino)pyrimidine-5-carboxamide]
CC12CC(Nc3nc(NC45CCC(O)(CC4)C5)ncc3C(N)=O)(C1)C2 [Example 490, 2-(4-hydroxybicyclo[2.2.1]heptan-1-ylamino)-4-(3-methylbicyclo[1.1.1]pentan-1-ylamino)pyrimidine-5-carboxamide]
C[C@@H]1CC[C@@H](Nc2nc(N[C@H]3CC[C@H](OC4CC4)CC3)ncc2C(N)=O)C[C@H]1O [Example 492, 2-((1r,4R)-4-cyclopropoxycyclohexylamino)-4-((1R,3R,4R)-3-hydroxy-4-methylcyclohexylamino)pyrimidine-5-carboxamide]
CC(C)(C)C12CC(Nc3nc(N[C@H]4CC[C@H](O)CC4)ncc3C(N)=O)(C1)C2 [Example 493, 4-(3-tert-butylbicyclo[1.1.1]pentan-1-ylamino)-2-((1r,4r)-4-hydroxycyclohexylamino)pyrimidine-5-carboxamide]
CCNc1ncc(C(N)=O)c(N[C@@H]2CC[C@@H](C)[C@H](O)C2)n1 [Example 494, 2-(ethylamino)-4-((1R,3R,4R)-3-hydroxy-4-methylcyclohexylamino)pyrimidine-5-carboxamide]
CC(C)CNc1ncc(C(N)=O)c(N[C@@H]2CCC[C@H](O)C2)n1 [Example 495, 4-((1R,3S)-3-hydroxycyclohexylamino)-2-(isobutylamino)pyrimidine-5-carboxamide]

Reference: patent publication US12129237B2, “Substituted diaminocarboxamide and diaminocarbonitrile pyrimidines, compositions thereof, and methods of treatment therewith” (SIGNAL PHARMACEUTICALS, LLC, priority 2011, dated 2024)
